Values quoted from earlier work in PMC4781755 (Biochemistry, 2015).

Experiments:
hNaDC1 = details: read-out: Km for succinate, hNaDC1
hNaDC3 = details: read-out: Km for succinate, hNaDC3

## O=C(O)CC(O)(CC(=O)O)C(=O)O [citrate]
vcINDY
  inhibition of vcINDY: weak inhibitor

## O=C(O)CCC(=O)O [succinate]
hNaDC1
  Km: 500 µM
hNaDC3
  Km: ~20 µM
